Laboratory results as given in patent US8835629B2, “Anti-cancer agents” (The Walter and Eliza Hall Institute of Medical Research, priority 2010, dated 2014).
“Also recorded” adds a separate entry of the source.

Experiments:
[1] = tested on: H1437 (non-small cell lung cancer cell line) tumours; experiment: Tumor xenograft study with H1437; format: in vivo, Balb/c nu/nu mice
Experimental: FIG. 10: H1437 tumor growth in nude mice. Tumor diameters were measured with external callipers every three days and tumor volume calculated with the formula: π/6×(L×W2).
Mice: Balb/c nu/nu male; 8 controls and 8 treated; 5 weeks old.
Cells inoculated: H1437 (non-small cell lung cancer cell line) at 2×10^6 cells/tumour; two tumours per mouse.
Dose: Compound 2 at 20 mg/kg=100 μl of 4 mg/ml in water for injection per 20 g mouse. Control mice were injected with 100 μl water for injection.
Treatment and monitoring: Treatment commenced at Day 5 after inoculation. Mice were injected SC in abdomen three times per week, on alternating sides. Mice were weighed; tumour diameters measured in two dimensions and the health of the mice was monitored. Injections correspond to data points on the plots, with an additional treatment on Day 14 when no measurements were made.

BaF/3 cells = experiment: Anti-mitotic effects of metabolites recovered from mouse plasma (G2/M, FACS); format: cell-based, murine; details: BaF3, 24 hr, FACS with Propidium Iodide, concentration of recovered peaks difficult to quantify, read-out: IC50 (G2/M block) of peaks recovered from mouse plasma
Experimental: FIG. 5: Anti-mitotic effects of metabolites recovered from mouse plasma after compound 2 injection. BaF/3 cells were incubated for 24 hr with increasing amounts of each reconstituted peak. Cell cycle distribution was assessed by FACS analysis using Propidium Iodide. The percentage of cells in the G2/M phase of the cell cycle was determined using ModFi
The mouse plasma was fractionated on RP-HPLC and the peaks indicated above were collected. The pooled peak samples were concentrated by lyophilization. A portion of each peak sample was reconstituted in culture media for bioassay (FIG. 5). The remainder was analyzed by LC-MS to confirm the mass and identify the structures.

SW 480 = experiment: MTT cell proliferation assay, SW 480; format: cell-based; details: SW480, 72 h; SW 480 human colorectal carcinoma; MTT after 3 days of incubation; read-out: IC50, inhibition of proliferation
Experimental: (§1) Compound 2 was tested on a series of cell lines to determine its activity and selectivity (Table 2). Cell proliferation was measured using the MTT assay (for protocol see Example 2.6) after 3 days of incubation with the inhibitor.
(§2) • Cells plated at […] in 100 μl medium+5% FCS (+Adds^1): • Cells incubated overnight: • Titrate inhibitors in a fresh plate in 150 μl medium • Transfer 100 μl titrated compounds to matching wells of the cell plate. • Incubate a further 4 days: • Add 10 μl MTS^2 or MTT^3 for 1.5 to 2 hours and read on Multiscanner (wavelengths 492/690) ^1 Additives for culture of LIM cell lines: 10 μM thioglycerol, 0.025 U/ml insulin, 1 μg/ml hydrocortisone. ^2 3-(4,5-dimethylthiazol-2-yl)-5-(3-carboxymethoxyphenyl)-2-(4-sulfophenyl)-2H-tetrazolium. ^3 3-(4,5-Dimethylthiazol-2-yl)-2,5-diphenyltetrazolium bromide
(§3) Cells are trypsinized and washed ×2 in medium+5% FCS and plate out at 10^4 cells per well in 100 μl.
(§4) Incubate plates o/n 37° C.+5%-10% CO2 incubator.
(§5) Inhibitors are dissolved in DMSO to make 10 mM stocks and titrated in a 96 well plate in duplicate to use as the stock for the test plate. […]
(§6) Read OD of plates on Thermo Multiskan Ex, at 560/690 nm.

MDA-MB-231 = experiment: Antimitotic effects (G2/M cell cycle block, DNA staining, ModFit) on MDA-MB-231; format: cell-based, human
Source text: For the initial studies two colon carcinoma cell lines (LIM1215 and SW480) and two breast cancer cell lines (MDA-MB-231 and MCF-7) were used. Taxol was used as comparator in these experiments (Table 1).

[2] = Pharmacokinetics of Compound 2 in mouse plasma (RP-HPLC); format: in vivo; details: mice
Experimental: FIG. 6: Plots of plasma concentrations of compound 2 in mice following a single subcutaneous dose of 50 mg/kg. Each point corresponds to an individual mouse. A: Semi-log plot of calculated concentrations of Peak 1 values. B: Semi-log plot of values including all metabolite peaks. C: Mean and se values comparing Peak 1 only with all peaks.
The pharmacokinetic parameters for Compound 2 were determined following injection into mice.
Mouse blood was collected by cardiac puncture after anaesthesia by CO2 gas. Mice were subsequently euthanized. The blood was transferred to an EDTA tube to prevent clotting and the plasma collected after separation by centrifugation. For each sample 25 μl Plasma Was Added To 75 μl Cold 0.1% TFA (v/v) With 5 μM Hydrocortisone (HC) As an internal standard. These processed samples were stored at −20° C. until required. On thawing they were clarified by centrifugation and the extracts were analyzed on RP-HPLC.
Each 100 μl plasma extract was separated on a Zorbax SB-C18, 2.1×150 mm, 5μ column using a linear 50 min gradient of acetonitrile in 0.1% (v/v) TFA at a flow rate of 0.1 ml per minute and a column temperature of 45° C. Detection was at 250 nm.
The concentration of drug in the plasma was determined by the internal standard method of calibration by comparing the ratios of drug to HC peak areas relative to the known standards. Plasma concentrations of compound 2 in the mice from one pharmacokinetics experiment are plotted in FIG. 6

MCF-7 = experiment: MTT cell proliferation assay, MCF-7; format: cell-based; details: MCF7, 72 h; MCF-7 human breast carcinoma; MTT after 3 days of incubation; read-out: IC50, inhibition of proliferation
Experimental: as §1, §2, §3, §4, §5, §6

COc1ccc(CNc2nc(NCc3ccc(CN)cc3)nc(NN3CC(=O)NC3=O)n2)cc1 (single isomer, unassigned) [Compound 2, 1-[4-(4-aminomethyl-benzylamino)-6-(4-methoxybenzylamino)-{1,3,5}-triazin-2-yl-amino]-imidazolidine-2,4-dione]
Tumour growth (tumour volume) ([1]; 20 mg/kg SC three times per week from day 5, terminated at 26 days): Clear difference; also recorded: significant difference in volume between control and treated tumours
Size of dissected tumours ([1]; 20 mg/kg three times per week, after sacrifice): clear difference in size
IC50 (BaF/3 cells): 100 nM
IC50 (SW 480): 30 nM
% of Taxol (proportion of cells in G2M test/proportion of cells in G2M Taxol) (MDA-MB-231; 24 hrs, standard 1 μM Taxol): 103%
IC50 (MDA-MB-231; Homo sapiens, inhibitors added to cells in log-growth for 24 hrs, read-out: IC50 for progression through the cell cycle): 9 nM
Time therapeutically significant concentrations are maintained in the serum [2]: up to 10 hr
Plateau concentration in the blood stream ([2]; 50 mg/kg in aqueous solution, single subcutaneous dose): 60 µM
Level remaining in the blood stream for 6-10 hours ([2]; 50 mg/kg in aqueous solution, for 6-10 hours): up to 6 μM
half-life ([2]; mouse, plasma, subcutaneous, 50 mg/kg in aqueous solution, read-out: Elimination half-life (converted)): ~1.5 h
IC50 (MCF-7): 10 nM
